Experimental data taken from ChEMBL document CHEMBL5376020, “Synthesis and evaluation of WK-X-34 derivatives as P-glycoprotein (P-gp/ABCB1) inhibitors for reversing multidrug resistance” (RSC Med Chem, 2024).
Active and inactive are the calls of the source. The calls are words filed in the database; no cut-off is given here.

Tests used:
SW620/AD300 [1] = test: Reversal fold, ratio of Doxorubicin IC50 to test compound IC50 for reversal of doxorubicin-induced multi-drug resistance in human SW620/AD300 cells measured after 48 hrs by CCK-8 method; format: functional
SW620/AD300 [2] = test: Induction of doxorubicin induced apoptosis in human SW620/AD300 cells assessed as viable cells at 5 uM incubated for 48 hrs in presence of doxorubicin by annexin V-FITC and PI staining based flow cytometry analysis (reference value: 92.8%); format: functional; details: read-out: Activity
[3] = Octanol/water partition coefficient, log P of the compound; format: physicochemical
SW620/AD300 [4] = test: Induction of doxorubicin induced apoptosis in human SW620/AD300 cells assessed as necrotic cells at 5 uM incubated for 48 hrs in presence of doxorubicin by annexin V-FITC and PI staining based flow cytometry analysis (reference value: 0.59%); format: functional
SW620/AD300 [5] = test: Downregulation of P-gp expression level in human SW620/AD300 cells at 5 to 10 uM measured after 24 hrs by Western blot analysis; format: functional, cell-based; details: dose 5-10 µM
SW620/AD300 [6] = test: Induction of doxorubicin induced apoptosis in human SW620/AD300 cells assessed as necrotic cells at 2.5 uM incubated for 48 hrs in presence of doxorubicin by annexin V-FITC and PI staining based flow cytometry analysis (reference value: 0.59%); format: functional
SW620/AD300 [7] = test: Induction of doxorubicin induced apoptosis in human SW620/AD300 cells assessed as early apoptotic cells at 5 uM incubated for 48 hrs in presence of doxorubicin by annexin V-FITC and PI staining based flow cytometry analysis (reference value: 4.55%); format: functional
SW620/AD300 [8] = test: Induction of doxorubicin induced apoptosis in human SW620/AD300 cells assessed as late apoptotic cells at 2.5 uM incubated for 48 hrs in presence of doxorubicin by annexin V-FITC and PI staining based flow cytometry analysis (reference value: 2.07%); format: functional
SW620/AD300 [9] = test: Cytotoxicity against human overexpressing P-gp SW620/AD300 cells assessed as cell mortality rate at 5 uM measured after 48 hrs by CCK-8 method relative to control; format: functional
SW620/AD300 [10] = test: Downregulation of P-gp expression level in human SW620/AD300 cells at 2 to 5 uM measured after 24 hrs by qPCR analysis; format: functional, cell-based; details: dose 2-5 µM
SW-620 [11] = test: Reversal of doxorubicin-induced multidrug resistance in human SW620 cells measured after 48 hrs by CCK-8 method; format: functional, cell-based; details: SW-620, 48 h
SW620/AD300 [12] = test: Reversal of doxorubicin-induced multidrug resistance in human SW620/AD300 cells measured after 48 hrs by CCK-8 method; format: functional, cell-based; details: SW620/AD300, 48 h
SW620/AD300 [13] = test: Downregulation of P-gp expression level in human SW620/AD300 cells at upto 50 uM measured after 24 hrs by Western blot analysis; format: functional, cell-based
SW-620 [14] = test: Cytotoxicity against human SW620 cells assessed as cell mortality rate at 5 uM measured after 48 hrs by CCK-8 method relative to control; format: functional
SW620/AD300 [15] = test: Induction of doxorubicin induced apoptosis in human SW620/AD300 cells assessed as viable cells at 2.5 uM incubated for 48 hrs in presence of doxorubicin by annexin V-FITC and PI staining based flow cytometry analysis (reference value: 92.8%); format: functional; details: read-out: Activity
SW-620 [16] = test: Reversal fold, ratio of Doxorubicin IC50 to test compound IC50 for reversal of doxorubicin-induced multi-drug resistance in human SW620 cells measured after 48 hrs by CCK-8 method; format: functional
[17] = target: ATP-dependent translocase ABCB1 (Homo sapiens, UniProt P08183); test: Inhibition of P-gp efflux in human SW620/AD300 cells assessed as increase in accumulation of Rh123 by measuring fluorescence intensity at 5.0 uM incubated for 4 hrs followed by Rh123 addition measured after 30 mins by flow cytometric analysis; format: cell-based; details: sw620/ad300, 4.5 h
SW620/AD300 [18] = test: Induction of doxorubicin induced apoptosis in human SW620/AD300 cells assessed as late apoptotic cells at 5 uM incubated for 48 hrs in presence of doxorubicin by annexin V-FITC and PI staining based flow cytometry analysis (reference value: 2.07%); format: functional
SW620/AD300 [19] = test: Induction of doxorubicin induced apoptosis in human SW620/AD300 cells assessed as early apoptotic cells at 2.5 uM incubated for 48 hrs in presence of doxorubicin by annexin V-FITC and PI staining based flow cytometry analysis (reference value: 4.55%); format: functional

Chain of ATP-dependent translocase ABCB1 (P08183 whole entry): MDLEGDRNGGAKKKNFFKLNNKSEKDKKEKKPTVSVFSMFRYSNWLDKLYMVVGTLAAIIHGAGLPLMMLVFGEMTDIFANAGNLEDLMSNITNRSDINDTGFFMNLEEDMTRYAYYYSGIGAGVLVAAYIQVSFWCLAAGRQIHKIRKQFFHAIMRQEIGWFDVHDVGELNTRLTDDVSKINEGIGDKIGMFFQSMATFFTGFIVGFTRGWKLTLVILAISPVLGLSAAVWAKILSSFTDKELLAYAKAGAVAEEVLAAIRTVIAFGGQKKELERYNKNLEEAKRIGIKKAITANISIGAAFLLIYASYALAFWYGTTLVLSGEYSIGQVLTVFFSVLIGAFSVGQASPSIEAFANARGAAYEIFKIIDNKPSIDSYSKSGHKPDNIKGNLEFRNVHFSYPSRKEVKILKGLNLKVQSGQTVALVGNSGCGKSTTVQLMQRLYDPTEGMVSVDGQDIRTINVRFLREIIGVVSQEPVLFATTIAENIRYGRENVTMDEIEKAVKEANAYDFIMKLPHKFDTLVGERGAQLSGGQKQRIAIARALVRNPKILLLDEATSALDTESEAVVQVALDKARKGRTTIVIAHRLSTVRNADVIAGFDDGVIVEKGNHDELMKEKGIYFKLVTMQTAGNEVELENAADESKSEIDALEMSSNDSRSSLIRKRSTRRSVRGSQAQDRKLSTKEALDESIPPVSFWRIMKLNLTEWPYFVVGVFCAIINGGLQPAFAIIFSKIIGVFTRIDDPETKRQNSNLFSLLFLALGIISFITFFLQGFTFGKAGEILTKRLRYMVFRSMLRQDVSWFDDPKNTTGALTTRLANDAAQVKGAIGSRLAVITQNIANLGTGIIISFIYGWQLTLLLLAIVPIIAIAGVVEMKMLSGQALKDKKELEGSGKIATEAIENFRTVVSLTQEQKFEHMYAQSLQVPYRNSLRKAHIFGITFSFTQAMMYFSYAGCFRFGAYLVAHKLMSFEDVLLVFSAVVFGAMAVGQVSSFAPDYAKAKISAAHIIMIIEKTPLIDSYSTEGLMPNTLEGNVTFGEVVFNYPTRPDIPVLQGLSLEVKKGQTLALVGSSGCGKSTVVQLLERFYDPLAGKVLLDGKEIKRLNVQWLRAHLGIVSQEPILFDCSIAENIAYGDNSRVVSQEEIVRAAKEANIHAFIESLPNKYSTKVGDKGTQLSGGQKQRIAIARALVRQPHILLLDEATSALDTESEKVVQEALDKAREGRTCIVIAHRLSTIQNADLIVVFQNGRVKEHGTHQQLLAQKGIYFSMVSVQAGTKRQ

For `COc1cc2c(cc1OC)CN(CCc1ccc(NC(=O)c3ccccc3NC(=O)C34CC5CC(CC(C5)C3)C4)cc1)CC2`, the “Ratio IC50” value (SW620/AD300 [1]) was 15.7, the viability at 5 µM (SW620/AD300 [2]) was 59.2% and the logP [3] was 6.83. The Activity (SW620/AD300 [4]) was 0.29%, the Activity (SW620/AD300 [5]) was “inactive” and the Activity (SW620/AD300 [6]) was 0.08%. The Activity (SW620/AD300 [7]) was 36.1%, the Activity (SW620/AD300 [8]) was 0.96% and the mortality at 5 µM (SW620/AD300 [9]) was under 2%. For the same compound, the Activity (SW620/AD300 [10]) was “inactive”, the IC50 (SW-620 [11]) was 144 nM and the IC50 (SW620/AD300 [12]) was 671 nM. The Activity (SW620/AD300 [13]) was “Active”, the mortality at 5 µM (SW-620 [14]) was under 2% and the viability at 2.5 µM (SW620/AD300 [15]) was 76.3%. The “Ratio IC50” value (SW-620 [16]) was 1.8, the “inhibition (INH)” value [17] was “Active” and the Activity (SW620/AD300 [18]) was 4.45%. The Activity (SW620/AD300 [19]) was 22.7%.

For `COc1cc2c(cc1OC)CN(CCc1ccc(NC(=O)c3ccccc3NC(=O)c3ccccc3N)cc1)CC2`, the “Ratio IC50” value (SW620/AD300 [1]) was 14.6, the logP [3] was 5.78 and the IC50 (SW-620 [11]) was 229 nM. The IC50 (SW620/AD300 [12]) was 719 nM and the “Ratio IC50” value (SW-620 [16]) was 1.1.

For `COc1cccc2c1C(=O)c1c(O)c3c(c(O)c1C2=O)C[C@@](O)(C(=O)CO)C[C@@H]3O[C@H]1C[C@H](N)[C@H](O)[C@H](C)O1` [DOXORUBICIN], the “Ratio IC50” value (SW620/AD300 [1]) was 1, the IC50 (SW-620 [11]) was 256 nM and the IC50 (SW620/AD300 [12]) was 10500 nM. For the same compound, the “Ratio IC50” value (SW-620 [16]) was 1.

With `COC(=O)c1ccc(C(=O)Nc2ccccc2C(=O)Nc2ccc(CCN3CCc4cc(OC)c(OC)cc4C3)cc2)cc1` the “Ratio IC50” value (SW620/AD300 [1]) was 10.4, the logP [3] was 5.77 and the IC50 (SW-620 [11]) was 136 nM. The IC50 (SW620/AD300 [12]) was 1010 nM and the “Ratio IC50” value (SW-620 [16]) was 1.9.

With `COc1cc2c(cc1OC)CN(CCc1ccc(NC(=O)c3ccccc3NC(=O)CC34CC5CC(CC(C5)C3)C4)cc1)CC2` the “Ratio IC50” value (SW620/AD300 [1]) was 51.4, the viability at 5 µM (SW620/AD300 [2]) was 70.2% and the logP [3] was 7.65. The Activity (SW620/AD300 [4]) was 1.13%, the Activity (SW620/AD300 [5]) was “inactive” and the Activity (SW620/AD300 [6]) was 0.29%. It also gave an Activity (SW620/AD300 [7]) of 24.7%, an Activity (SW620/AD300 [8]) of 3.15% and a mortality at 5 µM (SW620/AD300 [9]) of under 2%. For the same compound, the Activity (SW620/AD300 [10]) was “inactive”, the IC50 (SW-620 [11]) was 284 nM and the IC50 (SW620/AD300 [12]) was 205 nM. The Activity (SW620/AD300 [13]) was “inactive”, the mortality at 5 µM (SW-620 [14]) was under 2% and the viability at 2.5 µM (SW620/AD300 [15]) was 78.9%. The “Ratio IC50” value (SW-620 [16]) was 0.9, the “inhibition (INH)” value [17] was “Active” and the Activity (SW620/AD300 [18]) was 3.93%. The Activity (SW620/AD300 [19]) was 17.7%.

For `COc1cc2c(cc1OC)CN(CCc1ccc(NC(=O)c3ccccc3NC(=O)c3ccc(NC(=O)CC45CC6CC(CC(C6)C4)C5)cc3)cc1)CC2`, the “Ratio IC50” value (SW620/AD300 [1]) was 21.1, the logP [3] was 8.48 and the mortality at 5 µM (SW620/AD300 [9]) was under 6%. It also gave an IC50 (SW-620 [11]) of 489 nM, an IC50 (SW620/AD300 [12]) of 498 nM and a mortality at 5 µM (SW-620 [14]) of under 6%. The “Ratio IC50” value (SW-620 [16]) was 0.5.

For `COc1cc2c(cc1OC)CN(CCc1ccc(NC(=O)c3ccccc3NC(=O)c3ccc(N)cc3)cc1)CC2`, the “Ratio IC50” value (SW620/AD300 [1]) was 15.9, the logP [3] was 5.23 and the IC50 (SW-620 [11]) was 173 nM. For the same compound, the IC50 (SW620/AD300 [12]) was 663 nM and the “Ratio IC50” value (SW-620 [16]) was 1.5.

With `COc1cc2c(cc1OC)CN(CCc1ccc(NC(=O)c3ccccc3NC(=O)c3ccc(C(=O)NCCNC(=O)CC45CC6CC(CC(C6)C4)C5)cc3)cc1)CC2` the “Ratio IC50” value (SW620/AD300 [1]) was 13, the logP [3] was 7.9 and the mortality at 5 µM (SW620/AD300 [9]) was under 6%. It also gave an IC50 (SW-620 [11]) of 138 nM, an IC50 (SW620/AD300 [12]) of 807 nM and a mortality at 5 µM (SW-620 [14]) of under 6%. For the same compound, the “Ratio IC50” value (SW-620 [16]) was 1.8.

For `COc1cc2c(cc1OC)CN(CCc1ccc(NC(=O)c3ccccc3NC(=O)CCNC(=O)CC34CC5CC(CC(C5)C3)C4)cc1)CC2`, the “Ratio IC50” value (SW620/AD300 [1]) was 27.7, the logP [3] was 6.89 and the mortality at 5 µM (SW620/AD300 [9]) was under 6%. The IC50 (SW-620 [11]) was 342 nM, the IC50 (SW620/AD300 [12]) was 379 nM and the mortality at 5 µM (SW-620 [14]) was under 6%. The “Ratio IC50” value (SW-620 [16]) was 0.7.

For `COc1ccc(C(=O)Nc2ccccc2C(=O)Nc2ccc(CCN3CCc4cc(OC)c(OC)cc4C3)cc2)cc1OC`, the “Ratio IC50” value (SW620/AD300 [1]) was 45.9, the viability at 5 µM (SW620/AD300 [2]) was 57.3% and the logP [3] was 5.85. For the same compound, the Activity (SW620/AD300 [4]) was 0.56%, the Activity (SW620/AD300 [7]) was 38.5% and the mortality at 5 µM (SW620/AD300 [9]) was 9%. For the same compound, the IC50 (SW-620 [11]) was 63 nM, the IC50 (SW620/AD300 [12]) was 223 nM and the mortality at 5 µM (SW-620 [14]) was 9%. The “Ratio IC50” value (SW-620 [16]) was 4, the “inhibition (INH)” value [17] was “Active” and the Activity (SW620/AD300 [18]) was 3.62%.

With `COc1cc2c(cc1OC)CN(CCc1ccc(NC(=O)c3ccccc3NC(=O)c3ccc(C(=O)O)cc3)cc1)CC2` the “Ratio IC50” value (SW620/AD300 [1]) was 1.4, the logP [3] was 3.16 and the IC50 (SW-620 [11]) was 376 nM. The IC50 (SW620/AD300 [12]) was 7540 nM and the “Ratio IC50” value (SW-620 [16]) was 0.7.

For `COc1ccc(CCN(C)CCCC(C#N)(c2ccc(OC)c(OC)c2)C(C)C)cc1OC` (stereo not given) [VERAPAMIL], the IC50 (SW-620 [11]) was 142 nM.

With `COc1cc2c(cc1OC)CN(CCc1ccc(NC(=O)c3ccccc3NC(=O)c3ccc(C(=O)N4CCN(C(=O)CC56CC7CC(CC(C7)C5)C6)CC4)cc3)cc1)CC2` the “Ratio IC50” value (SW620/AD300 [1]) was 78.6, the viability at 5 µM (SW620/AD300 [2]) was 42.1% and the logP [3] was 8.04. The Activity (SW620/AD300 [4]) was 1.17%, the Activity (SW620/AD300 [5]) was “inactive” and the Activity (SW620/AD300 [6]) was 0.22%. It also gave an Activity (SW620/AD300 [7]) of 52.1%, an Activity (SW620/AD300 [8]) of 1.16% and a mortality at 5 µM (SW620/AD300 [9]) of under 2%. For the same compound, the Activity (SW620/AD300 [10]) was “inactive”, the IC50 (SW-620 [11]) was 137 nM and the IC50 (SW620/AD300 [12]) was 134 nM. The Activity (SW620/AD300 [13]) was “inactive”, the mortality at 5 µM (SW-620 [14]) was under 2% and the viability at 2.5 µM (SW620/AD300 [15]) was 47.8%. For the same compound, the “Ratio IC50” value (SW-620 [16]) was 1.9, the “inhibition (INH)” value [17] was “Active” and the Activity (SW620/AD300 [18]) was 5.15%. The Activity (SW620/AD300 [19]) was 50.8%.
